Laboratory results reported in paper PMC3121759 (PLoS ONE, 2011).
“And” between values parts separate entries of the source, which are not always exact repeats. Identical values can stand only once. Like-named read-outs stand apart in the source and are kept apart here.

How the values were obtained:
GlyT-1 [1] = target: T1, GlyT-1 (Rattus norvegicus, UniProt P28572); conditions: cited from earlier work
T1 construct: the tissues of whole brains or each specific brain region were homogenized; from tissue; host or cells: rat brain (whole brain or dissected regions; male Crl:CD (SD) rats)
T1 sequence (P28572 1-638): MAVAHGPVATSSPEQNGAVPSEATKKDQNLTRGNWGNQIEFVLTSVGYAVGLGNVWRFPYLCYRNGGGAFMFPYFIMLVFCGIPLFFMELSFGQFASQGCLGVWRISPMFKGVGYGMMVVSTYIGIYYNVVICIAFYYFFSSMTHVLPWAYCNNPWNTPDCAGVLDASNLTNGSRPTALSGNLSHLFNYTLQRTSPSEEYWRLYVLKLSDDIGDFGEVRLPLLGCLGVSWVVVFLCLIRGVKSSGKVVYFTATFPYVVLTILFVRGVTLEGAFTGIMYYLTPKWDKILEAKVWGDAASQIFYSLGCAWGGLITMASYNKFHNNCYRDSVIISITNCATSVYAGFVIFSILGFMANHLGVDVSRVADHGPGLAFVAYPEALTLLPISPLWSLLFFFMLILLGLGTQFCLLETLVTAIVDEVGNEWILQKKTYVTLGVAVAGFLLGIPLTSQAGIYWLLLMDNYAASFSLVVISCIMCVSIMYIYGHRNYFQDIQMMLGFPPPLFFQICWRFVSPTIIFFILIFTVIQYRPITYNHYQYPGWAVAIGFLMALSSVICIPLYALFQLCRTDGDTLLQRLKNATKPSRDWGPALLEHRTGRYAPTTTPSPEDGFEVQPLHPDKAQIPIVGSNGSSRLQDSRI

GlyT-1 [2] = target: T1, GlyT-1; assay: Drug inhibition of [3H]CHIBA-3007 binding to rat brain membranes; conditions: [3H]CHIBA-3007 (1 nM)
Experimental: The supernatant was discarded and the pellet was re-suspended, homogenized and centrifuged as above. The membrane pellet was washed and re-suspended in ice-cold HEPES buffer and was then centrifuged three times. The final pellet was re-suspended in 15 volumes of the buffer (120 mM NaCl, 2 mM KCl, 1 mM CaCl2, 1 mM MgCl2 10 mM HEPES, pH 7.5 at room temperature).
The binding reaction was terminated by rapid vacuum filtration onto Whatman GF/B glass filters pretreated with 0.5% polyethyleneimine (Sigma-Aldrich Co.) using a 24-channel cell harvester (Brandell, Gaithersburg, MD). The filters were washed with 5 mL of ice-cold assay buffer 3 times, and placed in vials with 4 mL scintillation cocktail. The radioactivity trapped by the filters was determined using a liquid scintillation counter (Beckman LS-6500; Beckman Coulter K.K., Tokyo, Japan).
(§1) The data are shown as the mean ± standard error of the mean (S.E.M.). The dissociation constant (Kd) and maximal binding (Bmax) values from saturation binding and the IC50 values from binding displacement by each drug were determined using the program GraphPad Prism (GraphPad Software, San Diego, CA). […] Correlation was analyzed by Pearson's Correlation Coefficient (PASW Statistics 19, Tokyo, Japan). Significance was set at p<0.05.

GlyT-1 [3] = target: T1, GlyT-1; assay: Inhibition of [14C]glycine uptake in rat brain membranes; format: biochemical
Experimental: The homogenate was centrifuged at 1,000 g for 10 min to remove nuclei and debris, and then the supernatant was centrifuged again at 20,000 g for 20 min (synaptosomal P2 fraction). The pellet was washed and re-suspended in ice-cold 0.32 M sucrose, buffered with 10 mM HEPES (pH 7.4) and centrifuged again at 20,000 g for 20 min (washed P2 fraction). The pellet was re-suspended in 10 volumes of assay buffer with the following composition: 10 mM HEPES buffer (pH 7.4) containing 140 mM NaCl, 5.5 mM KCl, 1.8 mM CaCl2, 0.8 mM MgSO4, 5 mM glucose and 5 mM L-alanine (HB). The protein concentrations were measured by using a DC protein assay kit (Bio-Rad Laboratories Inc., Tokyo, Japan).
Non-specific uptake was estimated in the presence of 30 µM SSR504734. […] The filters were washed by buffer, and the radioactivity trapped by the filters was determined using a liquid scintillation counter as described above.
as §1

GlyT-1 [4] = conditions: cited from earlier work
GlyT-1 [5] = conditions: read-out: IC50 for [3H]glycine uptake; cited from earlier work
GlyT-1 [6] = target: T1, GlyT-1; assay: Equilibrium saturation binding of [3H]CHIBA-3007 to rat brain membranes
Experimental: For saturation-binding isotherms, 6 grade-diluted concentrations of [^3H]CHIBA-3007 (0.3125–10 nM) were used. Specific binding of [^3H]CHIBA-3007 to rat brain membranes was saturable and rapid, and represented >90% of total binding over the concentration range of [^3H]CHIBA-3007 (Figure 2).
Figure 2 Specific binding of [^3H]CHIBA-3007 to rat brain membranes. Rat brain membranes were incubated with various concentrations of [^3H]CHIBA-3007 (0.3125–10 nM) for 120 min at room temperature. Nonspecific binding was estimated in the presence of 10 µM SSR504734. The results are from a typical experiment and values are the average of duplicate determinations. […] TB: total binding, NSB: nonspecific binding, SB: specific binding. The results are means ± S.E.M. of three independent experiments performed in duplicate. […] The data are the mean of three independent experiments performed in duplicate.
(§2) For the [^3H]CHIBA-3007-binding assay, the tissues of whole brains or each specific brain region were homogenized in 15 volumes (w/v) of 10 mM 4-(2-hydroxyethyl)-1- piperazineethanesulfonic acid (HEPES) at pH 7.4 for 30 s on ice. The homogenate was centrifuged at 40,000 g for 15 min at 4°C. The supernatant was discarded and the pellet was re-suspended, homogenized and centrifuged as above. The membrane pellet was washed and re-suspended in ice-cold HEPES buffer and was then centrifuged three times. The final pellet was re-suspended in 15 volumes of the buffer (120 mM NaCl, 2 mM KCl, 1 mM CaCl2, 1 mM MgCl2 10 mM HEPES, pH 7.5 at room temperature).
Assays of the binding of [^3H]CHIBA-3007 to rat brain membranes were performed. Aliquots of the rat brain membrane suspension (200 µL) were added in duplicate to a reaction mixture containing [^3H]CHIBA-3007 and the indicated concentrations of test drug in a final volume of 0.5 mL. Non-specific binding was estimated in the presence of 10 µM SSR504734, a potent and selective GlyT-1 inhibitor [34]. [3H]CHIBA-3007 binding was allowed to occur for 120 min at room temperature for the equilibrium saturation and inhibition studies. The binding reaction was terminated by rapid vacuum filtration onto Whatman GF/B glass filters pretreated with 0.5% polyethyleneimine (Sigma-Aldrich Co.) using a 24-channel cell harvester (Brandell, Gaithersburg, MD). The filters were washed with 5 mL of ice-cold assay buffer 3 times, and placed in vials with 4 mL scintillation cocktail. The radioactivity trapped by the filters was determined using a liquid scintillation counter (Beckman LS-6500; Beckman Coulter K.K., Tokyo, Japan).
as §1

GlyT-1 [7] = target: T1, GlyT-1; assay: Regional distribution of [3H]CHIBA-3007 binding in rat brain; conditions: [3H]CHIBA-3007 1 nM, seven rat brain regions
Experimental: After sacrificing the rats by decapitation, the brains were rapidly removed from the skulls. Whole brains or seven specific cerebral regions - the cerebral cortex, striatum, hippocampus, thalamus, midbrain, cerebellum and pons - dissected on ice by the method of Glowinski and Iversen were stored at −80°C until use for the assay.
as §2
Assays of the binding of [^3H]CHIBA-3007 to rat brain membranes were performed. […] The radioactivity trapped by the filters was determined using a liquid scintillation counter (Beckman LS-6500; Beckman Coulter K.K., Tokyo, Japan).

[8] = 120 min room temperature, mean ± S.E.M., n=3

In the case of COc1ccc2c(c1)CC[C@H](CN(C)CC(=O)O)[C@@H]2c1ccccc1 [Org25935], the “Type of interaction with binding of [3H]SB-733993 and [3H]GSK931145” value (GlyT-1 [1]) is given as “uncompetitive interactions”.

In the case of O=C(N[C@@H](c1ccsc1)[C@H]1CCCCN1)c1nccc(C(F)(F)F)c1Cl [Desmethyl-CHIBA-3007, 3-chloro-N-((S)-((R)-piperidin-2-yl)(thiophen-3-yl)methyl)-4-(trifluoromethyl)picolinamide], the Ki (GlyT-1 [2]; [8]) is reported as 35.9 ± 1.3 nM and the IC50 (GlyT-1 [3]) is reported as 187 ± 40 nM.

For Cc1cccc(C)c1C(=O)N[C@@H](c1ccccc1)C1(N(C)C)CCCC1 [GSK931145], the “pIC50 for inhibiting [3H]glycine uptake” value (GlyT-1 [4]) is given as 7.58.

For O=C(N[C@@H](c1cccc(-c2cn[nH]c2)c1)[C@H]1CCCCN1)c1nccc(C(F)(F)F)c1Cl [CHIBA-3008, N-((S)-(3-(1H-pyrazol-4-yl)phenyl)((R)-piperidin-2-yl)methyl)-3-chloro-4-(trifluoromethyl)pyridine-2-carboxamide], the Ki (GlyT-1 [2]; [8]) is given as 2.2 ± 0.6 nM and the IC50 (GlyT-1 [5]) is given as 0.2 nM.

Work on N[C@@H](COC(c1cccc(F)c1)c1ccccc1OCc1ccccc1)C(=O)O (stereo partly drawn) [ALX1393, O-[(2-benzyloxyphenyl-3-flurophenyl)methyl]-L-serine] yielded a Ki (GlyT-1 [2]; [8]) of 852 ± 56.4 nM.

CN1CCCC[C@@H]1[C@@H](NC(=O)c1nccc(C(F)(F)F)c1Cl)c1ccsc1 [[^3H]CHIBA-3007, [^3H]3-chloro-N-((S)-((R)-1-methylpiperidin-2-yl)(thiophen-3-yl)methyl)-4-(trifluoromethyl)picolinamide] showed a Kd (GlyT-1 [6]; room temperature, 0.3125–10 nM radioligand, n=3, read-out: Kd (apparent equilibrium dissociation constant)) of 1.61 ± 0.16 nM.

For Cc1cccc(C)c1C(=O)N[C@@H](c1ccccc1)C1(N(C)C)CCCC1 [[^3H]GSK931145], the Kd (GlyT-1 [1]) is given as 1 to 2 nM.

For CN(CC[C@@H](Oc1ccc(C(F)(F)F)cc1)c1ccccc1)CC(=O)O (racemic) [Org24598, (R,S)-(±)N-methyl-N-[(4-trifluoromethyl)phenoxy]-3-phenylpropylglycine], the Ki (GlyT-1 [2]; [8]) was 16.9 ± 3.1 nM and the IC50 (GlyT-1 [3]) was 653 ± 154 nM.

In the case of CNCC(=O)O [Sarcosine, sarcosine], the Ki (GlyT-1 [2]) is reported as 103000 nM, the Ki (GlyT-1 [2]; [8]) is reported as 103000 nM and the IC50 (GlyT-1 [3]) is reported as 414000 nM.

In the case of CN(CCC(Oc1ccc(-c2ccccc2)cc1)c1ccc(F)cc1)CC(=O)O (centres unmarked) [NFPS/ALX5407, N-[3-(4-fluorophenyl)-3-(4-phenyl-phenoxy)propyl]-sarcosine], the Ki (GlyT-1 [2]; [8]) is given as 4.1 ± 0.9 nM, the IC50 (GlyT-1 [3]) is given as 83.7 ± 30.3 nM and the “Type of interaction with binding of [3H]SB-733993 and [3H]GSK931145” value (GlyT-1 [1]) is given as “uncompetitive interactions”.

Work on CN(CCOc1ccc(-c2ccc3c(c2)OCO3)cc1C(C)(C)C)CC(=O)O [LY2365109] yielded a Ki (GlyT-1 [2]; [8]) of 16.2 ± 4.9 nM and an IC50 (GlyT-1 [3]) of 1350 nM.

In the case of [3H]C([3H])([3H])N(C)C1([C@@H](NC(=O)c2c(C)cccc2C)c2ccccc2)CCCC1 [[^3H]GSK931145], the “Specific binding as share of total binding” value (GlyT-1 [1]; at concentrations around Kd) is given as over 90% and the Bmax (GlyT-1 [1]; rat brain) is given as “around 3000 fmol/mg protein”.

For [3H]C([3H])([3H])N1CCCC[C@@H]1[C@@H](NC(=O)c1nccc(C(F)(F)F)c1Cl)c1ccsc1 [[^3H]CHIBA-3007, [^3H]3-chloro-N-((S)-((R)-1-methylpiperidin-2-yl)(thiophen-3-yl)methyl)-4-(trifluoromethyl)picolinamide], the Nonspecific binding (GlyT-1 [6]) was under 10%, the “Time to reach binding equilibrium” value (GlyT-1 [6]; kinetic study, data not shown) was “less than 5 min” and the “Specific binding as share of total binding” value (GlyT-1 [6]; over the concentration range 0.3125–10 nM) was over 90%. The “Bmax (maximal number of binding sites)” value (GlyT-1 [6]; room temperature, n=3) was 692.8 fmol/mg protein and 692.8±22.8 fmol/mg protein and the “Order of specific binding in brain regions” value (GlyT-1 [7]) was “midbrain > pons > thalamus > cerebellum > striatum > hippocampus > cerebral cortex”.

In the case of O=C(N[C@@H](c1ccccc1)[C@@H]1CCCCN1)c1cccc(C(F)(F)F)c1Cl [SSR504734], the Ki (GlyT-1 [2]; [8]) is given as 24.6 ± 0.8 nM, the IC50 (GlyT-1 [3]) is given as 84.5 ± 29.8 nM and the “pIC50 for inhibiting [3H]glycine uptake” value (GlyT-1 [4]) is given as 6.52.
